This is an account of results in patent publication US20220304307A1, “SYNERGISTIC MIXTURES FOR ARTHROPOD TOXICITY AND REPELLENCY” (University of Florida Research Foundation, Incorporated, priority 2019, published 2022).

Data set [1] has as its system insecticide-susceptible Aedes aegypti (Orlando strain) females. In words: Glass tube vapor toxicity assay (24 hr mortality). How it is done:
(§1) The following assay was conducted according to the procedures of Jiang et al., 2019 (Jiang S., Yang L, and Bloomquist J (2019) High-throughput screening method for evaluating spatial repellency and vapor toxicity to mosquitoes. Med. Vet. Entomol.). For assessing behavioral repellency (FIG. 1), sixteen female Aedes aegypti mosquitoes were transferred to a glass tube (12.5 cm long, 2.5 cm outer diameter) with the ends covered with netting. Metofluthrin, bifenthrin, permethrin, pyrethrum, transfluthrin, deltamethrin, esfenvalerate, metofluthrin acid, bifenthrin acid, phenothrin acid, transchryanthemic acid, transfluthrin acid, deltamethrin acid, and fenvalerate acid were each dissolved in 1 mL of acetone and serial dilutions ranging from 30-0.01 μg/ml were made. Circular filter papers (5 cm^2) were saturated with 50 μL of each concentration and allowed 10 min for solvent evaporation. The filter papers were then placed in clear conical polypropylene caps and fixed to the end of the glass tubes. The netting prevented mosquito contact with the filter paper. Tubes were then aligned with a mark denoting the midline and the proportion of mosquitoes on the chemically treated side was scored at 15, 30, and 60 min. At the end of the test, the tube was placed in a cage and the ability of the mosquitoes to fly out of the tube was assessed for 30 min. […] This post-test evaluated whether any non-responding mosquitoes (not repelled) was due to intoxication or disorientation from the test chemical. For vapor toxicity, the assay was identical, except that mosquitoes were kept in the tube for 24 hr without the post-test at 1 hr, and the mortality was recorded at 24 hr.
Synergism ratio (SR)=LC50 pyrethroid/LC50 pyrethroid+EO.

Data set [2] relates to PR (resistant) strain of Ae. aegypti antenna. In words: Electroantennography (EAG) responses, PR strain. Further details: species or system Aedes aegypti. Particulars: 10 mg odorant, air puff. From the text:
(§2) Electroantennography (EAG) responses of OR (susceptible) and PR (resistant) strains of Ae. Aegypti were then obtained for TF, TFA, and TCA (FIGS. 10A and 10B). In these experiments, an air puff stimulus with odorant was blown over an antenna suspended between 2 electrodes and represented the summed electrical response of all the chemo-receptive hairs. All compounds gave responses, with TF the largest (FIG. 10A).

The test system of data set [3] is pyrethroid-resistant Puerto Rico (PR) strain of Ae. aegypti. In words: Glass tube spatial repellency assay, resistant strain. Particulars: repellency resistance ratio; compound alone. Type of data set: in vivo, Aedes aegypti. As for the experimental part:
as §1
EC50 values were calculated from non-linear regression to a four parameter logistic equation (Prism, GraphPad Software, San Diego, Calif.) of the curves shown in FIG. 4. RR=resistance ratio. NA=data not yet available.

The subject of data set [4] is Orlando insecticide-susceptible strain of Ae. aegypti (female mosquitoes). In words: Glass tube spatial repellency assay. The class given is in vivo, Aedes aegypti. As for the experimental part:
as §1

The subject of data set [5] is OR (susceptible) strain of Ae. aegypti antenna. In words: Electroantennography (EAG) responses, OR strain. Also on record: species or system Aedes aegypti. Particulars: 10 mg odorant, air puff.
Text: as §2

As to `CC1(C)[C@H](C=C(Cl)Cl)[C@H]1C(=O)OCc1c(F)c(F)cc(F)c1F` [Transfluthrin, reference compound], the “synergism ratio of vapor toxicity, +TFA” value in data set [1] (TFA 50 μg/cm^2) came to 2.3. In addition, the “LC50 (24 h vapor toxicity)” value in data set [1] (pyrethroid alone) came out at 0.16 μg/cm^2. For the same compound, the “LC50 +TFA” value in data set [1] (with TFA (50 μg/cm^2), 24 h) was 0.07 μg/cm^2. In data set [2], the “EAG response in PR strain relative to OR” value is given as “reduced”. For the same compound, the “RR (PR EC50/OR EC50)” value in data set [3] came out at 4.7. For the same compound, the “mortality in repellency screening” value in data set [4] (100 μg/cm^2, 1 hr exposure) is “significant mortality”. For the same compound, the “repellency EC50 (+TFA)” value in data set [4] (applied as mixture with TFA (50 μg/cm^2), 1 hr) is 0.11 μg/cm^2. The “synergism of repellency with citronella” value in data set [4] (citronella at its EC20 (20 μg/cm^2)) is “not”. Besides, the “repellency EC50” value in data set [4] (compound alone, 1 hr) was determined as 0.5 μg/cm^2. The “synergist ratio SR (EC50 compound alone/EC50 compound+TFA)” value in data set [4] (repellency, TFA 50 μg/cm^2 as mixture) is recorded as “about 5”. The “EAG response” value in data set [5] was “largest”.
